How the values were obtained:
[1] = test system: ‘Justice’ tall fescue transgenic events; assay: Quizalofop on AAD1 ‘Justice’ tall fescue plants; type: in vivo; conditions: written in present tense
Protocol: ‘Justice’ tall fescue transgenic plants events were selected on tissue culture media containing quizalofop, and confirmed via PCR amplification of an inserted T-strand.
A growth medium was prepared by mixing Promix® and sand in a 2 to 1 ratio. The medium was contained in plastic pots. When required to maintain plant health, a fungicide, insecticide, and/or other chemical or physical treatment was applied to stock plants. The plants were maintained in a greenhouse and treated with fertilizer and growth supplements as needed and water was added on a regular basis. Supplemental lighting was provided.
The selected T0 plants are sprayed with quizalofop at rates ranging in concentration, beyond the typical in field usage rate. This rate structure is selected based on the GR90 (herbicide rate which produces 90% injury and/or growth inhibition) and the rate that would also control susceptible monocot weed species. […]
The treated plants and control plants are placed in a greenhouse and watered by sub-irrigation to prevent wash-off of the test compounds. At various times after application, the condition of the test plants as compared with that of the untreated plants is determined visually and scored on a scale of 0 to 100 percent, where 0 corresponds to no injury or growth inhibition, and 100 corresponds to complete kill. […]

[2] = test system: pDAS1421 T0 corn; assay: Whole plant quizalofop screening of T0 corn lineages containing AAD1 (v3) and AHAS (pDAS1421); type: in vivo; conditions: number of lineages
Protocol: Seventy-two Agrobacterium-transformed events were selected on various levels of R-haloxyfop acid and R-cyhalofop acid in vitro. Twenty-two callus samples were analyzed by Southern blot analysis for stable integration of AAD1 (v3) into the genome as described previously.
A minimum six regenerated clonal lineages per event were moved to soil in the greenhouse and screened using a track sprayer as previously described to apply 35 g ae/ha quizalofop when 2-4 new, normal leaves had emerged (see section 8.3.3). Presence of AAD1 protein on a Western blot correlated perfectly with herbicide resistance in the T0 generation regardless of which AOPP herbicide was used for selection. There is no negative impact of the second HTC gene (AHAS) on the function of the AAD1 (v3).

[3] = test system: AAD1 (v3) event lines; assay: Field tolerance of pDAB3404 T1 corn to quizalofop and 2,4-D: AAD1 (v3) events; type: in vivo; conditions: 140 g ae/ha
Description: Two field trials were established at field stations in Hawaii and Indiana. […] The hybrid Hi-II×5XH571 is of the same parentage as the AAD1 (v3) event lines. The hybrid Croplan 585SR is a sethoxydim resistant line.
The experimental design was a split-plot with four replications. The main plot was herbicide treatment and the sub-plot was AAD1 (v3) event or comparison hybrid. Plots were one row by 3.7 meters with approximately twenty-five seeds planted in each row. For AAD1 events, seeds from a different lineage within the event were planted in each replicate.
Glufosinate at 560 g ai/ha was applied to AAD1 (v3) plots at the V2 stage to eliminate non-transformed plants. […] Treatments were applied using backpack broadcast boom equipment delivering 187 L/ha carrier volume at 130-200 kpa pressure.
Quizalofop treated plots were visually assessed for crop injury at one and three weeks after application (WAA) using a 0-100% scale, where 0 equals no injury and 100 equals complete death.

[4] = test system: T2 lineages from 3404 transformations; assay: Quizalofop tolerance with respect to AAD1 (v3) expression in T2 3404 lineages; type: in vivo, corn
[5] = test system: Non-transformed Hi-II callused suspension tissue; assay: Dose response of non-transformed maize callus tissue; type: cell-based; conditions: haloxyfop 400 nM

C[C@@H](Oc1ccc(Oc2cnc3cc(Cl)ccc3n2)cc1)C(=O)O [quizalofop]
0: Assessment of T0 lineages resistant to 35 g ae/ha quizalofop: Sensitive ([2]; event 1421[3]-036) | Assessment of T0 lineages resistant to 35 g ae/ha quizalofop: Sensitive ([2]; event 1421[4]-031) | Assessment of T0 lineages resistant to 35 g ae/ha quizalofop: Sensitive ([2]; event 1421[4]-032) | Assessment of T0 lineages resistant to 35 g ae/ha quizalofop: Sensitive ([2]; event 1421[4]-033) | Assessment of T0 lineages resistant to 35 g ae/ha quizalofop: Sensitive ([2]; event 1421[4]-034) | Assessment of T0 lineages resistant to 35 g ae/ha quizalofop: Sensitive ([2]; event 1421[4]-035) | Assessment of T0 lineages resistant to 35 g ae/ha quizalofop: Sensitive ([2]; event 1421[21]-016) | Assessment of T0 lineages resistant to 35 g ae/ha quizalofop: Sensitive ([2]; event 1421[22]-020) | Assessment of T0 lineages resistant to 35 g ae/ha quizalofop: Sensitive ([2]; event 1421[22]-022) | Assessment of T0 lineages resistant to 35 g ae/ha quizalofop: Sensitive ([2]; event 1421[22]-023)
2,240 g/ha: highest level tested at which corn expressing AAD1 (v3) is protected from injury [4]
9: Assessment of T0 lineages resistant to 35 g ae/ha quizalofop: Resistant ([2]; event 1421[4]-031)
25%: % Injury 3 WAA (0-100 scale) ([3]; HI, 3404.001) | % Injury 3 WAA (0-100 scale) ([3]; IN, 3404.001)
0%: % Injury 3 WAA (0-100 scale) ([3]; HI, 3404.006) | % Injury 3 WAA (0-100 scale) ([3]; HI, 3404.013) | % Injury 3 WAA (0-100 scale) ([3]; HI, 3404.017) | % Injury 3 WAA (0-100 scale) ([3]; HI, 3404.020) | % Injury 3 WAA (0-100 scale) ([3]; HI, 3404.022) | % Injury 3 WAA (0-100 scale) ([3]; HI, 3404.025) | % Injury 3 WAA (0-100 scale) ([3]; HI, 3404.027) | % Injury 3 WAA (0-100 scale) ([3]; HI, 3404.031) | % Injury 3 WAA (0-100 scale) ([3]; HI, 3404.033) | % Injury 3 WAA (0-100 scale) ([3]; HI, 3404.036) | % Injury 3 WAA (0-100 scale) ([3]; HI, 3404.044) | % Injury 3 WAA (0-100 scale) ([3]; HI, 3404.050) | % Injury 3 WAA (0-100 scale) ([3]; HI, 3404.053) | % Injury 3 WAA (0-100 scale) ([3]; HI, 3404.074) | % Injury 3 WAA (0-100 scale) ([3]; HI, 3404.082) | % Injury 3 WAA (0-100 scale) ([3]; IN, 3404.006) | % Injury 3 WAA (0-100 scale) ([3]; IN, 3404.013) | % Injury 3 WAA (0-100 scale) ([3]; IN, 3404.017) | % Injury 3 WAA (0-100 scale) ([3]; IN, 3404.020) | % Injury 3 WAA (0-100 scale) ([3]; IN, 3404.022) | % Injury 3 WAA (0-100 scale) ([3]; IN, 3404.025) | % Injury 3 WAA (0-100 scale) ([3]; IN, 3404.027) | % Injury 3 WAA (0-100 scale) ([3]; IN, 3404.031) | % Injury 3 WAA (0-100 scale) ([3]; IN, 3404.033) | % Injury 3 WAA (0-100 scale) ([3]; IN, 3404.036) | % Injury 3 WAA (0-100 scale) ([3]; IN, 3404.044) | % Injury 3 WAA (0-100 scale) ([3]; IN, 3404.050) | % Injury 3 WAA (0-100 scale) ([3]; IN, 3404.053) | % Injury 3 WAA (0-100 scale) ([3]; IN, 3404.074) | % Injury 3 WAA (0-100 scale) ([3]; IN, 3404.082)
12: Assessment of T0 lineages resistant to 35 g ae/ha quizalofop: Resistant ([2]; event 1421[4]-033)
8: Assessment of T0 lineages resistant to 35 g ae/ha quizalofop: Resistant ([2]; event 1421[3]-036) | Assessment of T0 lineages resistant to 35 g ae/ha quizalofop: Resistant ([2]; event 1421[4]-032) | Assessment of T0 lineages resistant to 35 g ae/ha quizalofop: Resistant ([2]; event 1421[4]-034) | Assessment of T0 lineages resistant to 35 g ae/ha quizalofop: Resistant ([2]; event 1421[21]-016) | Assessment of T0 lineages resistant to 35 g ae/ha quizalofop: Resistant ([2]; event 1421[22]-020) | Assessment of T0 lineages resistant to 35 g ae/ha quizalofop: Resistant ([2]; event 1421[22]-022) | Assessment of T0 lineages resistant to 35 g ae/ha quizalofop: Resistant ([2]; event 1421[22]-023)
6: Assessment of T0 lineages resistant to 35 g ae/ha quizalofop: Resistant ([2]; event 1421[4]-035)
less injury: injury of tall fescue events compared to non-transgenic control plants [1]

CC(Oc1ccc(Oc2ncc(C(F)(F)F)cc2Cl)cc1)C(=O)O (stereo not shown) [haloxyfop]
inhibited: non-transgenic corn callus tissue growth [5]

From patent US10450549B2, “Aryloxyphenoxypropionate tolerance in turfrgass species and use of AAD1 as a selectable marker” (Dow AgroSciences, LLC, priority 2004, dated 2019)
